Laboratory results from patent US5405958A, “Photochromic spiro(indoline)naphthoxazine compounds” (Transitions Optical, Inc., priority 1992, dated 1995).

How the values were obtained:
Type in all cases: physicochemical
[1] = UV spectrophotometer lambda max in diethylene glycol dimethyl ether solution; settings: for lambda max compared with compound samples A, B and D (in words): Table 1 values vs. samples A, B and D of Table 2; for LAMBDA MAX: in diethylene glycol dimethyl ether, approximately 0.5 milligrams per milliliter
Protocol: The principal products of Examples 1, 2 and 3 were dissolved in diethylene glycol dimethyl ether. The concentrations of the resulting solutions were approximately 0.5 milligrams per milliliter. Each solution was tested in a UV spectrophotometer to determine its lambda max. The lambda max reported in Table 1 is the wavelength in the ultraviolet range closest to the visible spectrum or in the threshold range, i.e., 390 to 410 nanometers, of the visible spectrum, at which the maximum absorption and activation of the photochromic compound occurs in diethylene glycol dimethyl ether.

[2] = Colour change of diethylene glycol dimethyl ether solution on ultraviolet irradiation
[3] = Lambda max in imbibed polymer matrix test squares; settings: for LAMBDA MAX: in polymer matrix test squares of diethylene glycol bis(allyl carbonate)
Protocol: (§1) These compounds were imbibed by thermal transfer into test squares of a polymeric matrix prepared from a diethylene glycol bis(allyl carbonate) composition by the following procedure: Each photochromic compound was dissolved in toluene to form a 4 weight percent solution of the compound. A piece of No. 4 Whatman filter paper was saturated with the toluene solution of the photochromic compound and allowed to air dry. The dried filter paper was placed on one side of the polymer test square, which measured 1/8 inch (0.3 centimeter)×2 inch (5.1 centimeters)×2 inch (5.1 centimeters). A piece of untreated filter paper was placed on the other side of the polymer test square and the resulting sandwich placed between two plates of flat aluminum metal plates. […] The imbibed test squares were washed with acetone after removal from the oven.
(§2) The Δ OD/min., which represents the sensitivity of the photochromic compound's response to UV light, was measured using photopic filters on the silicon detector. The response of the filtered detector approximated the luminosity curve. The Δ OD was measured over the first five (5) seconds of UV exposure, then expressed on a per minute basis. The saturation optical density (OD) was taken under identical conditions as the Δ OD/min., except UV exposure was continued for 20 minutes. The lambda max reported in Table 2 is the wavelength in the ultraviolet range closest to the visible spectrum or in the threshold range, i.e., 390 to 410 nanometers, of the visible spectrum at which the maximum absorption and activation of the photochromic compound occurs in the polymer matrix test squares.

[4] = Photochromic response (sensitivity, saturation optical density) of imbibed polymer test squares on optical bench; settings: for Δ OD @ SATURATION: UV exposure continued for 20 minutes; for Δ OD/min. SENSITIVITY: first five (5) seconds of UV exposure, expressed per minute, photopic filters, about one sun
Protocol: as §1
(§3) The imbibed polymer test squares were tested for photochromic response rates on an optical bench. The samples were illuminated by a 150 watt Xenon lamp fitted with a copper sulfate bath and a neutral density filter at an intensity of about one sun. A second beam of light provided by a filtered tungsten lamp arranged to pass through the sample area exposed by the UV source was used to monitor changes in transmission of the sample over different wavelength ranges in the visible region of the spectrum. The intensity of the monitoring beam after passing through the sample was measured by means of an IL-1500 radiometer equipped with a silicon detector head and matching filters.
as §2

[5] = Bleach rate of imbibed polymer test squares; settings: for BLEACH RATE T 1/2: 25.7±0.5° C., after removal of activating light
Protocol: as §1, §3

| Molecule | lambda max compared with compound samples A, B and D (in words) [1] | LAMBDA MAX [1] | colour of solution after the ultraviolet light was removed [2] | colour of solution before irradiation [2] | colour of solution when irradiated with ultraviolet light [2] | LAMBDA MAX [3] | absorption maxima in the UV spectrum compared with compounds A, B and D (in words) ([3]; polymer test squares) | Δ OD @ SATURATION [4] | Δ OD/min. SENSITIVITY [4] | optical density at saturation compared with the other compounds (in words) ([4]; polymer test squares) | sensitivity compared with the other compounds (in words) ([4]; polymer test squares) | BLEACH RATE T 1/2 [5] [min] | bleach rate (in words) ([5]; polymer test squares) |
| --- | --- | --- | --- | --- | --- | --- | --- | --- | --- | --- | --- | --- | --- |
| 1,3,3,4,5(or 1,3,3,5,6,)-pentamethyl-9'-methoxy-carbonyl-8'-acetoxy-spiro[indoline-2,3'-[3H]naphth[2,1-b][1,4]oxazine] [Example 3] | relatively high lambda max values | 374 | returned to its original colorless condition | colorless | changed to blue | – | – | – | – | – | – | – | – |
| 1,3,3,4,5(or 1,3,3,5,6,)-pentamethyl-9'-methoxycarbonyl-8'-hydroxy-spiro[indoline-2,3'-[3H]naphth[2,1-b][1,41oxazine] [Example 1] | relatively high lambda max values | 403 | returned to its original slightly colored condition | slight yellow cast | changed to green | – | – | – | – | – | – | – | – |
| 1,3,3,4,5(or 1,3,3,5,6,)-pentamethyl-9'-methoxycarbonyl-8'-methoxy-spiro[indoline-2,3'-[3H]naphth[2,1-b][1,41oxazine] [Example 2] | relatively high lambda max values | 383 | returned to its original colorless condition | colorless | changed to blue | – | – | – | – | – | – | – | – |
| 1-propyl-3,3,4,5(or 3,3,5,6)-tetramethyl-9'-methoxycarbonyl-8'-acetoxy-spiro[indoline-2,3'-[3H]naphth[2,1-b][1,4]oxazine] [Compound C] | – | – | – | – | – | 374 | unexpectedly higher than compounds A, B and D | 0.42 Δ OD | 0.46 Δ OD/min. | higher optical density at saturation | improved sensitivity | 2.27 | acceptable bleach rate |
| 1propyl-3,3,4,5(or 3,3,5,6)tetramethyl-spiro[indoline2,3[3H]naphth[2,1b][1,4]oxazine] | – | – | – | – | – | 346 | – | 0.11 Δ OD | 0.21 Δ OD/min. | – | – | 0.783 | – |
| CCCN1c2cc(C)c(C)cc2C(C)(C)C12C=Nc1c(ccc3ccc(OC)cc13)O2 (centres unmarked) [A, 1propyl-3,3,5,6-tetramethyl-9methoxy-spiro[indoline2,3[3H]naphth[2,1b][1,]oxazine]] | – | – | – | – | – | 336 | – | 0.11 Δ OD | 0.15 Δ OD/min. | – | – | 1.17 | – |
| CCCN1c2cc(C)c(C)cc2C(C)(C)C12C=Nc1c(ccc3ncccc13)O2 (centres unmarked) [B, 1propyl-3,3,5,6-tetramethyl-spiro[indoline2,3[3H]pyrido[3,2f][1,4]benzoxaine]] | – | – | – | – | – | 350 | – | 0.36 Δ OD | 0.44 Δ OD/min. | – | – | 1.15 | – |
